The text below walks through data of patent publication US6552066B1, “Protein tyrosine kinase inhibitors for treating osteoarthritis” (priority 1995, dated 2003).

Assay [1] concerns aggrecanase cleavage of aggrecan (230K fragment). Kind of assay: Aggrecanase neoepitope in IL-1-stimulated chondrocytes, BC-3 antibody immunoblot. Type of assay: cell-based, bovine. The protocol: Primary bovine articular chondrocytes from calf adio-carpal joints were isolated and cultured as above in Example 1, up to and including the addition of the following protein kinase inhibitors: 1) Protein kinase A (PKA) inhibitors; 0.5 μM H88 (Seikagaku Corp.), 0.5 μM H89 (Seikagaku Corp.); 2) Protein kinase C (PKC) inhibitors; 0.5 μM Calphostin C (Calbiochem), 1.0 μM Chelerythrine (Calbiochem); 3) CA^2+/Calmodulin Kinase II inhibitor; 5.0 μM KN93 (Seikagaku Corp.); 4) Protein tyrosine kinase (PTK) inhibitors; 50 μM Genistein (Calbiochem), 10 μM Herbimycin A (Calbiochem). After the 24 hour IL-1α incubation, the media of each sample was measured, and collected on ice in the presence of the protease inhibitors EGTA (5 mM), Pefaloc (1 mM), pepstatin (1 μg/ml), and NEM (5 mM). Media were concentrated approximately 40 fold using a Centriprep-10 ultrafiltration device (Amicon).
Proteoglycans contained within the media were deglycosylated by incubations with chondroitinase ABC, keratinase, and keratinase II following the procedure of Sandy et al. J Biol Chem (1991) 266:8683-8685 and Sandy et al. J. Clin Invest (1992) 89:1512-1516. Samples of deglycosylated media were subjected to 4-15% gradient SDS-PAGE and transferred to nitrocellulose membranes (2 ml-worth and 6 ml-worth of media were used for 2-B-6 and BC-3 immunoblotting, respectively.) The membranes were blocked with 1% nonfat dry milk and 1% BSA, and then incubated in either the BC-3 or 2-B-6 primary monoclonal antibody for 1 hour. The 2-B-6 antibody detects chondroitin sulfate stubs on chondroitinase-treated proteoglycans (both intact and degradation products. BC-3 antibody detects “ARGSV . . . ,” the new N-terminus (“neoepitope”) resulting from cleavage of aggrecan interglobular domain at Glu^373/ALA^374 by aggrecanase. It is of note to mention that the BC-3 and 2-B-6 antibodies were of low sensitivity. Following 3 washes, membranes were incubated in either alkaline phosphatase-conjugated goat anti-mouse (for the 2-B-6 blot) or biotinylated goat anti-mouse (for the BC-3 blot); followed by alkaline phosphatase-conjugated streptavidin/biotin complex). After washing 3 times, immunoreactive proteins were detected using NBT/BCIP (Sigma) colorimetric substrate.
For orientation: A western blot detects proteins with antibodies after separation by electrophoresis.

The test system of assay [2] is IL-1-stimulated release of radiolabelled proteoglycan from bovine cartilage explants. Nature of the assay: Bovine cartilage explant assay with rhIL-1α and plasminogen (35S-GAG release). Type of assay: cell-based. The note with it: Bos taurus, rhIL-1α 5 ng/mL, plasminogen 0.4 μM. An excerpt: A tissue culture assay was used to measure the ability of the compounds of the present invention to slow the degradation of the extracellular matrix by metalloproteinases. This assay measured the amount of ^35S-glycosaminoglycan (^35S-GAG) released from labeled bovine cartilage explants.
Knee joints from a 1 to 3 week old calf were obtained immediately after sacrifice from the Abattoir and then transported on ice. The intact joints were washed well with tap water and soaked in 50% (v/v) Povidine iodine solution, obtained from Burre National, Inc., Baltimore, Md. All subsequent steps were performed in a laminar flow tissue culture hood using standard sterile technique. The joint was immobilized in a shank holder and the joint capsule was cut open to expose the articular cartilage. […]
Individual disks obtained were transferred to a tissue culture flask containing about 100 mL fresh media. […] When ready to label, the old media was replaced with 50 mL fresh media containing about 1.2 mCi ^35S-Sodium Sulfate. […]
The TC plates were then placed in the incubator and cultured for 3-4 days (initial incubation with rhIL-1α alpha takes at least 3 days to stimulate endogenous metalloproteinases). A 50 μL aliquot of media from each TC plate was saved and counted. […]

`O=c1c(-c2ccc(O)cc2)coc2cc(O)cc(O)c12` [Genistein]: the “BC-3 immunoreactive band at approximately 230K (aggrecanase-mediated fragment)” value in assay [1] (50 μM) is given as “not present”. In assay [2], `CO[C@H]1[C@@H](OC)C[C@H](C)[C@@H](OC)C2=CC(=O)C=C(NC(=O)/C(C)=C/C=C\[C@H](OC)[C@@H](OC(N)=O)/C(C)=C/[C@@H]1C)C2=O` [Herbimycin A] gave an inhibition at 2 µM of about 70%. The “BC-3 immunoreactive band at approximately 230K (aggrecanase-mediated fragment)” value in assay [1] (10 μM) was “not present”.

One may read the inhibition as the share of the control response that was lost under treatment. A low value points to little suppression.
